# Source: PMC8068036, “Synthesis of New Biscoumarin Derivatives, In Vitro Cholinesterase Inhibition, Molecular Modelling and Antiproliferative Effect in A549 Human Lung Carcinoma Cells” (International Journal of Molecular Sciences, 2021)
# Like-named read-outs stand apart in the source and are kept apart here.
# How the values were obtained:
# hBChE (human plasma) = target: T1, hBChE (human plasma) (Homo sapiens, UniProt P06276); assay: biochemical; format: biochemical; conditions: human plasma BChE, mean of at least three experiments
# T1 construct: Human plasma was used as a source of BChE; from tissue; host or cells: human plasma from heparinized blood
# T1 sequence (P06276 29-602): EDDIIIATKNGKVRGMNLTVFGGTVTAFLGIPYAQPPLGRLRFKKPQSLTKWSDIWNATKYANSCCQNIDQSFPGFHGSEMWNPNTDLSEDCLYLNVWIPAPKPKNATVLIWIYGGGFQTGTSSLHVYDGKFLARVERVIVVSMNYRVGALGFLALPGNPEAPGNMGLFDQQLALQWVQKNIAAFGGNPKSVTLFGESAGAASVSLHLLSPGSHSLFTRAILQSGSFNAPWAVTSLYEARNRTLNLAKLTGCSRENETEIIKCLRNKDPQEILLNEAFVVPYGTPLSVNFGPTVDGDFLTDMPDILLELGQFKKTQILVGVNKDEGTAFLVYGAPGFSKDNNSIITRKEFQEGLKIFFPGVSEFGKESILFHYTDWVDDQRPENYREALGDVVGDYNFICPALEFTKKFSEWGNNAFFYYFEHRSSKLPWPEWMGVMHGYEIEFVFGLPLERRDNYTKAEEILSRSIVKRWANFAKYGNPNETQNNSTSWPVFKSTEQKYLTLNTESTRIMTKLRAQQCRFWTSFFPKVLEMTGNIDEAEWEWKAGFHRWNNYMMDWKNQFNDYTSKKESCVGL
# Procedure: (§1) Human recombinant AChE (EC 3.1.1.7), 5,5′-dithiobis(2-nitrobenzoic acid) (Ellman′s reagent, DTNB), phosphate buffer (PB, 0.1 M, pH 7.4), and acetylthiocholine (ATC) and butyrylthiocholine (BTC), were purchased from Sigma-Aldrich, Prague, Czech Republic. Human plasma was used as a source of BChE and was prepared from heparinized human blood. The blood was centrifuged for 20 min (4 °C, 2300× g) on a Hettich Universal 320R centrifuge. The plasma was separated and stored at […]. Polystyrene Nunc 96-well microplates with a flat bottom shape (ThermoFisher Scientific, Waltham, MA, USA) were used for measuring purposes.
# (§2) All of the assays were carried out in a 0.1 M phosphate buffer, pH 7.4. The assay medium (100 µL) consisted of 40 µL of 0.1 M phosphate buffer (pH 7.4), 20 µL of 0.01 M DTNB, 10 µL of the enzyme, and 20 µL of 0.01 M substrate ATC/BTC iodide solution).
# (§3) The tested compounds were preincubated for 5 min prior to use. The reaction was initiated immediately upon addition of 20 µL of the substrate. […] Each concentration was assayed in triplicate. Software GraphPad Prism 5 (San Diego, CA, USA) was used in the evaluation of the statistical data.
# human recombinant AChE = target: T2, human recombinant AChE (Homo sapiens, UniProt P22303); assay: biochemical; format: biochemical; conditions: mean of at least three experiments
# T2 construct: purchased Sigma-Aldrich, Prague, Czech Republic
# T2 sequence (P22303 32-614): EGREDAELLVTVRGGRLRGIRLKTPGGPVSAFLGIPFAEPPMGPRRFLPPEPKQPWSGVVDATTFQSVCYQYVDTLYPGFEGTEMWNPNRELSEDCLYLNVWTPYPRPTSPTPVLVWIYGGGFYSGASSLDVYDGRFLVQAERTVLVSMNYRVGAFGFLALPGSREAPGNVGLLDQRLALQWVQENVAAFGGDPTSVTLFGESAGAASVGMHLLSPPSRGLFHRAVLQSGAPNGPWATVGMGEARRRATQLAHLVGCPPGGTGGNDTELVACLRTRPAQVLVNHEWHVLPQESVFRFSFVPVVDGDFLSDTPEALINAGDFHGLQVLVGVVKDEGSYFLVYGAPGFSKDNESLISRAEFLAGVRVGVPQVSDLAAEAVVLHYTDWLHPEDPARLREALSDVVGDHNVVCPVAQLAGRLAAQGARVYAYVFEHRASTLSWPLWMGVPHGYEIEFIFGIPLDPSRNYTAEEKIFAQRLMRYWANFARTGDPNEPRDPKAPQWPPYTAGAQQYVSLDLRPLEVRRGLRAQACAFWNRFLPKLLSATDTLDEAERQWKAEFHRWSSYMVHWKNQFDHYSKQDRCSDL
# Procedure: as §1, §2, §3
# A549 cells [1] = assay: MTT assay, A549; format: cell-based, human; conditions: for IC50: Homo sapiens
# Procedure: (§4) Human lung carcinoma cell line A549 and CCD-18Co colon fibroblasts were purchased from the American Type Culture Collection (ATCC, Rockville, MD, USA). The A549 cells were cultured in a complete RPMI-1640 medium (Sigma-Aldrich, St. Louis, MO, USA), and CCD-18Co cells were cultured in an MEM medium (PAN-Biotech GmbH, Aidenbach, Germany). The media were supplemented with 10% fetal bovine serum (FBS; Biosera, Nuaille, France) and antibiotics (1% Antibiotic-Antimycotic 100× and 50 × 10^−3 g l^−1 gentamicin; Biosera) at 37 °C, 95% humidity, and 5% CO2.
# (§5) Prior to the selected treatments, cells were seeded on 12-well μ-Chamber slides (ibidi GmbH, Martinsried, Germany) and 6 and/or 96-well plates (TPP, Trasadingen, Switzerland) and left to settle for 24 h. The biscoumarin derivative solutions (at concentrations ranging from 10–100 µM) were then added to cells for 24 or 48 h, and analysis was subsequently performed.
# (§6) MTT assays were performed in order to evaluate changes in the metabolic activity of cells that had occurred as a consequence of treatment with the biscoumarin derivatives. A549 cells (15 × 10^3 cells/cm^2) and CCD-18Co ([…]) were seeded in 96-well microplates. The cells were treated for 24 and 48 h with different concentrations (10, 25, 35, 50, 65, 75, and 100 µM) of the derivatives. After the treatment, the MTT (3-(4,5-dimethylthiazol-2-yl)-2,5-diphenyltertrazolium bromide) solution in PBS (5 mg mL^−1) was added to each well. […]. The absorbance of formazan (λ = 584 nm) was measured using a BMG FLUOstar Optima spectrometer (BMG Labtech GmbH, Offenburg, Germany). The results were evaluated as percentages of the absorbance of the untreated control. Results are presented as the average percentage of cells from three independent experiments. IC50 values for the derivatives were extrapolated from a sigmoidal fit (dose–response curve) to the metabolic activity data using OriginPro 8.5.0 SR1 (OriginLab Corp., Northampton, MA, USA).
# CCD-18Co fibroblasts = assay: MTT assay, CCD-18Co; format: cell-based; conditions: for IC50: Homo sapiens, CCD-18Co
# Procedure: as §4, §5, §6
# A549 cells [2] = assay: Colony-forming assay; format: cell-based, human; conditions: 65 μM, 24 h treatment, 7 days cultivation, vs untreated control
# Procedure: For the colony-forming assay, floating and adherent cells were harvested together 24 h after treatment with the studied derivatives (35 and 65 µM). The cells were then counted using a Bürker chamber with eosin staining, and 500 viable cells per well were seeded in 6-well plates. After 7 days of cultivation under standard conditions, the cells in the plates were fixed and stained with 1% methylene blue dye in methanol. Visualized colonies were scanned and counted, and the results were evaluated as percentages of the untreated control. The results are presented as the average percentage of colonies from three independent experiments.
compound,measurement,setting,value
"COC(=O)Cc1cc(=O)oc2cc(OCCCCCCCCN3CCN(CCNC(=O)Cc4cc(=O)oc5cc(O)ccc45)CC3)ccc12 [12e, Methyl 2-[7-({2-[4-(2-{[2-(7-hydroxy-2-oxo-2H-4-chromenyl)acetyl]amino}etyl)piperazino]oktyl}oxy)-2-oxo-2H-4-chromenyl]acetate]",IC50 ± S.E.M. hBChE,hBChE (human plasma),did not show inhibitory activity
same,IC50,hBChE (human plasma); read-out: IC50 ± S.E.M. hBChE,> 500 µM
same,IC50 ± S.E.M. hAChE,human recombinant AChE,did not show inhibitory activity
same,IC50,human recombinant AChE; read-out: IC50 ± S.E.M. hAChE,> 500 µM
same,Metabolic activity of A549 cells (in words),"A549 cells [1]; 10 to 100 μM, 24 and 48 h",significant decrease
same,IC50,"A549 cells [1]; A549, 24 h, read-out: IC50 A549 24 h",49 µM
same,IC50,"A549 cells [1]; A549, read-out: IC50 A549 48 h, 48 h",35 µM
same,Metabolic activity of CCD-18Co cells (in words),CCD-18Co fibroblasts; 24 or 48 h,significantly reduced metabolic activity
same,IC50,"CCD-18Co fibroblasts; 24 h, read-out: IC50 CCD-18Co 24 h",> 100 µM
same,IC50,"CCD-18Co fibroblasts; read-out: IC50 CCD-18Co 48 h, 48 h",> 100 µM
same,IC50,"CCD-18Co fibroblasts; time not stated, read-out: IC50 CCD-18Co",> 100 µM
same,Reduction in relative number of colonies,A549 cells [2],20%
